Reference: patent US20210261621A1, “Preparation of Dilipid Polymixins and Use Thereof as Antimicrobial Adjuvants” (priority 2018, published 2021)
Where two headings read alike, the source gives them in different places. Positions of bridges follow the written chain, without caps; N, C: chain ends. Non-standard residues stand in square brackets, D forms with d. Residues, ends and D or L forms follow the SMILES beside them. *: point of attachment. Benzoyl(4-Ph) = O=C(c1ccc(-c2ccccc2)cc1)*; Dab = NCC[C@H](N)C(=O)O

Key:
pig erythrocytes = assay: Hemolytic assay; settings: for % Hemolysis at 512 μg/mL of polymyxin / MHC5, minimum concentration that resulted in 5% red blood cell hemolysis: pig erythrocytes, 1 h at 37° C.
Procedure: The ability of the compounds to lyse eukaryotic red blood cells was measured by the amount of hemoglobin released upon incubation with pig erythrocytes, following a published protocol [30]. Briefly, fresh pig blood (generously provided by Dr. Richard Hodges, Director of Animal Care and Veterinary Services of the University of Manitoba) drawn from a pig's antecubital vein was centrifuged at 1000 g for 5 min at 4° C., washed with phosphate-buffered saline (PBS) three times, and re-suspended in the same buffer, consecutively. Compounds at study were 2-fold serially diluted in PBS on a 96-well plate and mixed with equal volumes of erythrocyte solution. Post 1 h incubation at 37° C., the intact cells were pelleted by centrifugation at 1000 g for 5 min at 4° C. Resulting supernatant was then transferred to a new 96-well plate. The hemoglobin released was then measured via an EMax Plus microplate reader (Molecular Devices, USA) at 570 nm wavelength. Erythrocytes in PBS with or without 0.1% Triton X-100 were used as positive or negative control, respectively.

P. aeruginosa PAO1 = test system: P. aeruginosa PAO1; set-up: MICDrug / MICDrug in combo / MIC of adjuvant in combo: unit not given beside the values
[1] = combination with Chloramphenicol

`CC(C)C[C@@H]1NC(=O)[C@@H](Cc2ccccc2)NC(=O)[C@H](CCN)NC(=O)[C@@H](NC(=O)[C@H](CCN)NC(=O)[C@@H](NC(=O)[C@H](CCNC(=O)c2ccc(-c3ccccc3)cc2)NC(=O)c2ccc(-c3ccccc3)cc2)[C@@H](C)O)CCNC(=O)[C@H]([C@@H](C)O)NC(=O)[C@H](CCN)NC(=O)[C@H](CCN)NC1=O` [Compound 5, Dibiphenyl-4-Carboxylic Acid (Di-Biphenyl) Polymyxin] ({Benzoyl(4-Ph)}-[Dab](Benzoyl(4-Ph))T[Dab][Dab][Dab][dF]L[Dab][Dab]T; lactam 4-C) was tested, and the “% Hemolysis at 512 μg/mL of polymyxin” value (pig erythrocytes) was 13.1 ± 1.4%, the “MHC5, minimum concentration that resulted in 5% red blood cell hemolysis” value (pig erythrocytes) was 128 µg/mL and the “MIC of adjuvant alone (MIC1, MIC2, MIC3, MIC4, MIC5, MICPMBN)” value (P. aeruginosa PAO1; adjuvant alone, one value per checkerboard, in µg/mL) was 16. The FIC index (P. aeruginosa PAO1; combination with Aztreonam) was 0.62, the Interpretation (P. aeruginosa PAO1; combination with Aztreonam) was “Additive (An FIC index of ≤0.5, 0.5<x≤4, or >4 denotes for synergistic, additive or antagonistic interaction, respectively)” and the FIC index (P. aeruginosa PAO1; combination with Ceftazidime) was 0.62. The Interpretation (P. aeruginosa PAO1; combination with Ceftazidime) was “Additive (An FIC index of ≤0.5, 0.5<x≤4, or >4 denotes for synergistic, additive or antagonistic interaction, respectively)”, the FIC index (P. aeruginosa PAO1; [1]) was 0.50 and the Interpretation (P. aeruginosa PAO1; [1]) was “Synergy (An FIC index of ≤0.5, 0.5<x≤4, or >4 denotes for synergistic, additive or antagonistic interaction, respectively)”. For the same compound, the FIC index (P. aeruginosa PAO1; combination with Ciprofloxacin) was 1.00, the Interpretation (P. aeruginosa PAO1; combination with Ciprofloxacin) was “Additive (An FIC index of ≤0.5, 0.5<x≤4, or >4 denotes for synergistic, additive or antagonistic interaction, respectively)” and the FIC index (P. aeruginosa PAO1; combination with Clindamycin) was 0.53. The Interpretation (P. aeruginosa PAO1; combination with Clindamycin) was “Additive (An FIC index of ≤0.5, 0.5<x≤4, or >4 denotes for synergistic, additive or antagonistic interaction, respectively)”, the FIC index (P. aeruginosa PAO1; combination with Doripenem) was 1.00 and the Interpretation (P. aeruginosa PAO1; combination with Doripenem) was “Additive (An FIC index of ≤0.5, 0.5<x≤4, or >4 denotes for synergistic, additive or antagonistic interaction, respectively)”. The FIC index (P. aeruginosa PAO1; combination with Doxycycline) was 0.53, the Interpretation (P. aeruginosa PAO1; combination with Doxycycline) was “Additive (An FIC index of ≤0.5, 0.5<x≤4, or >4 denotes for synergistic, additive or antagonistic interaction, respectively)” and the FIC index (P. aeruginosa PAO1; combination with Fosfomycin) was 0.56. The Interpretation (P. aeruginosa PAO1; combination with Fosfomycin) was “Additive (An FIC index of ≤0.5, 0.5<x≤4, or >4 denotes for synergistic, additive or antagonistic interaction, respectively)”, the FIC index (P. aeruginosa PAO1; combination with Gentamicin) was 2.01 and the Interpretation (P. aeruginosa PAO1; combination with Gentamicin) was “Additive (An FIC index of ≤0.5, 0.5<x≤4, or >4 denotes for synergistic, additive or antagonistic interaction, respectively)”. For the same compound, the FIC index (P. aeruginosa PAO1; combination with Linezolid) was 0.53, the Interpretation (P. aeruginosa PAO1; combination with Linezolid) was “Additive (An FIC index of ≤0.5, 0.5<x≤4, or >4 denotes for synergistic, additive or antagonistic interaction, respectively)” and the FIC index (P. aeruginosa PAO1; combination with Meropenem) was 1.00. For the same compound, the Interpretation (P. aeruginosa PAO1; combination with Meropenem) was “Additive (An FIC index of ≤0.5, 0.5<x≤4, or >4 denotes for synergistic, additive or antagonistic interaction, respectively)”, the FIC index (P. aeruginosa PAO1; combination with Minocycline) was 0.62 and the Interpretation (P. aeruginosa PAO1; combination with Minocycline) was “Additive (An FIC index of ≤0.5, 0.5<x≤4, or >4 denotes for synergistic, additive or antagonistic interaction, respectively)”. The FIC index (P. aeruginosa PAO1; combination with Moxifloxacin) was 0.75, the Interpretation (P. aeruginosa PAO1; combination with Moxifloxacin) was “Additive (An FIC index of ≤0.5, 0.5<x≤4, or >4 denotes for synergistic, additive or antagonistic interaction, respectively)” and the FIC index (P. aeruginosa PAO1; combination with Novobiocin) was 0.50. The Interpretation (P. aeruginosa PAO1; combination with Novobiocin) was “Synergy (An FIC index of ≤0.5, 0.5<x≤4, or >4 denotes for synergistic, additive or antagonistic interaction, respectively)”, the FIC index (P. aeruginosa PAO1; combination with Piperacillin) was 1.00 and the Interpretation (P. aeruginosa PAO1; combination with Piperacillin) was “Additive (An FIC index of ≤0.5, 0.5<x≤4, or >4 denotes for synergistic, additive or antagonistic interaction, respectively)”. The Interpretation (P. aeruginosa PAO1; combination with Pleuromutilin) was “Additive (An FIC index of ≤0.5, 0.5<x≤4, or >4 denotes for synergistic, additive or antagonistic interaction, respectively)”, the FIC index (P. aeruginosa PAO1; combination with Rifampicin) was 0.31 and the Interpretation (P. aeruginosa PAO1; combination with Rifampicin) was “Synergy (An FIC index of ≤0.5, 0.5<x≤4, or >4 denotes for synergistic, additive or antagonistic interaction, respectively)”. The FIC index (P. aeruginosa PAO1; combination with Streptomycin) was 1.00, the Interpretation (P. aeruginosa PAO1; combination with Streptomycin) was “Additive (An FIC index of ≤0.5, 0.5<x≤4, or >4 denotes for synergistic, additive or antagonistic interaction, respectively)” and the FIC index (P. aeruginosa PAO1; combination with Tobramycin) was 1.01. For the same compound, the Interpretation (P. aeruginosa PAO1; combination with Tobramycin) was “Additive (An FIC index of ≤0.5, 0.5<x≤4, or >4 denotes for synergistic, additive or antagonistic interaction, respectively)”, the FIC index (P. aeruginosa PAO1; combination with Trimethoprim) was 0.62 and the Interpretation (P. aeruginosa PAO1; combination with Trimethoprim) was “Additive (An FIC index of ≤0.5, 0.5<x≤4, or >4 denotes for synergistic, additive or antagonistic interaction, respectively)”. The FIC index (P. aeruginosa PAO1; combination with Vancomycin) was 0.51, the Interpretation (P. aeruginosa PAO1; combination with Vancomycin) was “Additive (An FIC index of ≤0.5, 0.5<x≤4, or >4 denotes for synergistic, additive or antagonistic interaction, respectively)” and the “MIC of adjuvant in combo” value (P. aeruginosa PAO1; in combination with Aztreonam) was “(8)”. The “MIC of adjuvant in combo” value (P. aeruginosa PAO1; in combination with Ceftazidime) was “(8)”, the “MIC of adjuvant in combo” value (P. aeruginosa PAO1; in combination with Chloramphenicol) was “(4)” and the “MIC of adjuvant in combo” value (P. aeruginosa PAO1; in combination with Ciprofloxacin) was “(8)”. For the same compound, the “MIC of adjuvant in combo” value (P. aeruginosa PAO1; in combination with Clindamycin) was “(8)”, the “MIC of adjuvant in combo” value (P. aeruginosa PAO1; in combination with Doripenem) was “(8)” and the “MIC of adjuvant in combo” value (P. aeruginosa PAO1; in combination with Doxycycline) was “(8)”. The “MIC of adjuvant in combo” value (P. aeruginosa PAO1; in combination with Fosfomycin) was “(8)”, the “MIC of adjuvant in combo” value (P. aeruginosa PAO1; in combination with Gentamicin) was “(0.25)” and the “MIC of adjuvant in combo” value (P. aeruginosa PAO1; in combination with Linezolid) was “(8)”. For the same compound, the “MIC of adjuvant in combo” value (P. aeruginosa PAO1; in combination with Meropenem) was “(8)”, the “MIC of adjuvant in combo” value (P. aeruginosa PAO1; in combination with Minocycline) was “(8)” and the “MIC of adjuvant in combo” value (P. aeruginosa PAO1; in combination with Moxifloxacin) was “(8)”. The “MIC of adjuvant in combo” value (P. aeruginosa PAO1; in combination with Novobiocin) was “(4)”, the “MIC of adjuvant in combo” value (P. aeruginosa PAO1; in combination with Piperacillin) was “(8)” and the “MIC of adjuvant in combo” value (P. aeruginosa PAO1; in combination with Pleuromutilin) was “(8)”. For the same compound, the “MIC of adjuvant in combo” value (P. aeruginosa PAO1; in combination with Rifampicin) was “(4)”, the “MIC of adjuvant in combo” value (P. aeruginosa PAO1; in combination with Streptomycin) was “(8)” and the “MIC of adjuvant in combo” value (P. aeruginosa PAO1; in combination with Tobramycin) was “(0.25)”. The “MIC of adjuvant in combo” value (P. aeruginosa PAO1; in combination with Trimethoprim) was “(8)” and the “MIC of adjuvant in combo” value (P. aeruginosa PAO1; in combination with Vancomycin) was “(8)”.

With colistin [reference compound] the “% Hemolysis at 512 μg/mL of polymyxin” value (pig erythrocytes) was 1.6 ± 0.5%, the “MHC5, minimum concentration that resulted in 5% red blood cell hemolysis” value (pig erythrocytes) was >512 µg/mL and the hemolytic activity (pig erythrocytes; up to the highest concentration tested of 512 μg/mL) was “no hemolytic activity”.
